ChEMBL document CHEMBL1201862, “PubChem BioAssay data set” (2004)
Active and inactive are the calls of the source.

Assays:
[1] = target: DNA (cytosine-5)-methyltransferase 1 (Homo sapiens, UniProt P26358); test: DNMT1 methyltransferase inhibitors, confirmation, biochemical, fluorescent molecular beacon (AID 602386); format: functional
[2] = target: T1, Histone-lysine N-methyltransferase NSD2 (Homo sapiens, UniProt O96028); format: biochemical
T1 sequence (O96028 whole entry): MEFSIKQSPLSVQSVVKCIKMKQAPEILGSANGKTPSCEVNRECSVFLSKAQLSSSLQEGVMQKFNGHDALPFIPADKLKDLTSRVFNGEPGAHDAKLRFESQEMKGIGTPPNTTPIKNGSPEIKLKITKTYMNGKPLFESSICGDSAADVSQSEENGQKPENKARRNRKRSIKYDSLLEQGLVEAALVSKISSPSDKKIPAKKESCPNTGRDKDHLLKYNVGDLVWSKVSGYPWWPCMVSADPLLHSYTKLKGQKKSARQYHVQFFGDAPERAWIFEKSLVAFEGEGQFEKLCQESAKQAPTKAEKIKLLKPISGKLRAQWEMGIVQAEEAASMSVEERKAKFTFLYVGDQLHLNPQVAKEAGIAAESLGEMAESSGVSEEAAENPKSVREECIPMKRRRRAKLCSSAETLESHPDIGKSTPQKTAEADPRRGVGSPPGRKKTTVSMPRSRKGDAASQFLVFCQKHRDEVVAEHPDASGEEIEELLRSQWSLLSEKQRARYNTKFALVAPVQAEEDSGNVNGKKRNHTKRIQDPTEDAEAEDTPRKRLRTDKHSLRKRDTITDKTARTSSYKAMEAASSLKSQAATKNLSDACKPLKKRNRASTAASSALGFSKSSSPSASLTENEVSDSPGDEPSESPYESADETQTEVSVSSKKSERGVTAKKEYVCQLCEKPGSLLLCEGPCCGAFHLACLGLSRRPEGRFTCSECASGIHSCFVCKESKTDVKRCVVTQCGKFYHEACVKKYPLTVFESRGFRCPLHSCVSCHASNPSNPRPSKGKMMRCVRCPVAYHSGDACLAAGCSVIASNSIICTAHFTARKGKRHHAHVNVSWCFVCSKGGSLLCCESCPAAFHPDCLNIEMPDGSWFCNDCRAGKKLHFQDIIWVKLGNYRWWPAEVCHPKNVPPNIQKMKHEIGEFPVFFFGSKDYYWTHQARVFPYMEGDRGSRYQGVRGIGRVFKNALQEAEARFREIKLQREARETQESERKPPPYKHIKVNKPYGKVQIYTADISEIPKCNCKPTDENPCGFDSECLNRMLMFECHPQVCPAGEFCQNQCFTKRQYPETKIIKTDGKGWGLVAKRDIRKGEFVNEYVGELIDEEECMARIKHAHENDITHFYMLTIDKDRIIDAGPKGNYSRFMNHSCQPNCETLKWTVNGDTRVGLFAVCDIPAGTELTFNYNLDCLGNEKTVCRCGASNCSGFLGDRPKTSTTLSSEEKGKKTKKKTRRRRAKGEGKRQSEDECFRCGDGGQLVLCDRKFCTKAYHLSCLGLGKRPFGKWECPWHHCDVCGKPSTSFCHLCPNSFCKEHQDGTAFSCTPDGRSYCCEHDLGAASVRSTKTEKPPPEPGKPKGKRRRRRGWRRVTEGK

[3] = target: T2, Aminopeptidase N (Plasmodium falciparum FcB1/Columbia, UniProt O96935); test: P. falciparum M1AAP inhibitors, biochemical, fluorogenic H-Leu-NHMec substrate, 1536-well (AID 1445); parameters: species or system Plasmodium falciparum 3D7, 3D7
T2 sequence (O96935 whole entry): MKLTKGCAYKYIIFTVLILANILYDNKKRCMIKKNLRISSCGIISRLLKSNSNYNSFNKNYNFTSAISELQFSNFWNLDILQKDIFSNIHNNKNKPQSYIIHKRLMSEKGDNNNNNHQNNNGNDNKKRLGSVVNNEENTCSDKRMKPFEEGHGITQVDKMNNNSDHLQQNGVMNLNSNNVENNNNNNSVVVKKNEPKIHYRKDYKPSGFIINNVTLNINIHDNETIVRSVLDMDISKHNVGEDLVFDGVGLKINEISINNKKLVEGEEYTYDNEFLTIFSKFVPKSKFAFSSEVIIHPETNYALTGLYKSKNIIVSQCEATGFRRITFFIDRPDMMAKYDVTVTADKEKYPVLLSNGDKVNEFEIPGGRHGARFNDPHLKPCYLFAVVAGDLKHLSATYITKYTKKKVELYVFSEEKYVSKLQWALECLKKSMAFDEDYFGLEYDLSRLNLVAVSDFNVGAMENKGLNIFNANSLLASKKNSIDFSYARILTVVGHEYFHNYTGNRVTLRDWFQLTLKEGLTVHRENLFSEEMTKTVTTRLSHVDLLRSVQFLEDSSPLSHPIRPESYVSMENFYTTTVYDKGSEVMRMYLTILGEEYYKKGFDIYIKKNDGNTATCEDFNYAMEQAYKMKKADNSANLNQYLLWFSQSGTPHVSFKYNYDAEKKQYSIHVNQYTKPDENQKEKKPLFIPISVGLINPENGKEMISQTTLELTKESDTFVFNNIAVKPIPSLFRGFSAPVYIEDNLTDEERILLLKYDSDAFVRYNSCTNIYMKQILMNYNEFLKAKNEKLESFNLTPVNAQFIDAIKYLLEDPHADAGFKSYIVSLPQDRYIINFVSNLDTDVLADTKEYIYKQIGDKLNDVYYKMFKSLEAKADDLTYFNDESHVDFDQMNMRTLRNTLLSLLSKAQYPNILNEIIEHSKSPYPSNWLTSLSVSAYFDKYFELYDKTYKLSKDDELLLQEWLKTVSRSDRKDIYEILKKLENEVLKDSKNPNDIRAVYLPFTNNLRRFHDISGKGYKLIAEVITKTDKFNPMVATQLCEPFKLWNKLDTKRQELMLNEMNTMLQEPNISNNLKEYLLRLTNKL

[4] = target: Genome polyprotein (dengue virus type 2, UniProt P29990); test: Dengue-2 NS5 methyltransferase inhibitors, primary screen, biochemical, confirmation dose response (AID 588689); format: functional
Genome polyprotein, sequence (P29990 2492-3391 limits assumed): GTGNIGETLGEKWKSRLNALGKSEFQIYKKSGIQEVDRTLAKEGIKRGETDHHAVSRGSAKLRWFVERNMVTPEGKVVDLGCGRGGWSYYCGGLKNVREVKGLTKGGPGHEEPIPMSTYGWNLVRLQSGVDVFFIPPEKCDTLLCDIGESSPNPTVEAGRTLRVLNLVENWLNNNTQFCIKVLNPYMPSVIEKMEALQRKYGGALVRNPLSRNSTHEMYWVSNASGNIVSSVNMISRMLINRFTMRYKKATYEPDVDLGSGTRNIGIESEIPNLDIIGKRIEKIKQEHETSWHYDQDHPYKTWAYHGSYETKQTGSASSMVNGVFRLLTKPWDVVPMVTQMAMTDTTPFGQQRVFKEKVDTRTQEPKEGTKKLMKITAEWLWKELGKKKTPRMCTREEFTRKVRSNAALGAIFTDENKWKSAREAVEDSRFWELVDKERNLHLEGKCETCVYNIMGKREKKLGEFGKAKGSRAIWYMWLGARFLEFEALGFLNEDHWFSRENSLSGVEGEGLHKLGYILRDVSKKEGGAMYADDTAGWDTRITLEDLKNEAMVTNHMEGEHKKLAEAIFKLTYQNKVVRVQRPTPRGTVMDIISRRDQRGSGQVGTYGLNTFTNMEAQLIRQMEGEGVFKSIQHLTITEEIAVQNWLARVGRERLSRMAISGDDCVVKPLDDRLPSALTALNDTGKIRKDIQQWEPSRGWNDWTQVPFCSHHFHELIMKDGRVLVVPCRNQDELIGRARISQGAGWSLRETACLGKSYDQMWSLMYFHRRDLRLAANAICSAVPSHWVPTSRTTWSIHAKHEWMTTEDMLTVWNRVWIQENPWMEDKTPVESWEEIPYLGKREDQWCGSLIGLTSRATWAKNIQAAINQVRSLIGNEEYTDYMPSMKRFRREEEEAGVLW

[5] = target: T3, Probable nicotinate-nucleotide adenylyltransferase (Staphylococcus aureus (strain N315), UniProt P65502); format: functional, Staphylococcus aureus subsp. aureus N315;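 on IC50 Mean: confirmatory dose-response retesting of NadD inhibitor hits first found in an ultra-high-throughput screen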
T3 sequence (P65502 whole entry): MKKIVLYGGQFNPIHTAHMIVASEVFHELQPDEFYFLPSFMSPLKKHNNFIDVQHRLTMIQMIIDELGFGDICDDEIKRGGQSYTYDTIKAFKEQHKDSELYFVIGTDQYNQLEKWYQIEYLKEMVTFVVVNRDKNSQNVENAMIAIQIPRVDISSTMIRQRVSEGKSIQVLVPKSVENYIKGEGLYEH

[6] = target: T3, Probable nicotinate-nucleotide adenylyltransferase; format: functional, Staphylococcus aureus subsp. aureus N315; conditions: read-out: IC50_Mean
[7] = target: T4, High affinity choline transporter 1 (Homo sapiens, UniProt Q9GZV3); test: CHT inhibitors, dose response, cell-based, 5-point CRC, membrane potential dye (AID 504840); format: functional
T4 sequence (Q9GZV3 whole entry): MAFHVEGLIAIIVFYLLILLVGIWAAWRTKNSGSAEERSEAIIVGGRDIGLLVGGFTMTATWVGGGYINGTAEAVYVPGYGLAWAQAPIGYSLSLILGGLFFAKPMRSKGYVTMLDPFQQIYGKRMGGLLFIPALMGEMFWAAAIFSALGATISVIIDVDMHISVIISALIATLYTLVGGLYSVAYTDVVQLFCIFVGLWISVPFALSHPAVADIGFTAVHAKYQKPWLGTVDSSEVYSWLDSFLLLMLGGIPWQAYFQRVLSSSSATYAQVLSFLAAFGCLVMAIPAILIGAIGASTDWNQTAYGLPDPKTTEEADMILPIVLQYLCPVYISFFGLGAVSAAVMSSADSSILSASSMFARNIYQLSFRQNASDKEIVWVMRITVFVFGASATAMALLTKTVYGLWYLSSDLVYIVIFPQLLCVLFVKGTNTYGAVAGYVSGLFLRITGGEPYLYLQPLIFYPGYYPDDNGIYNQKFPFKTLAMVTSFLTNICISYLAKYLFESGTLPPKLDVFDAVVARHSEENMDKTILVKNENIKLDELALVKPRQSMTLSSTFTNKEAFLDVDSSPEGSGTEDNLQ

[8] = target: T4, High affinity choline transporter 1; test: CHT inhibitors, dose response, cell-based, 10-point CRC, membrane potential dye (AID 588401); format: functional;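 further: membrane potential dye fluorescence of choline-evoked depolarization via CHT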
[9] = target: 26S proteasome non-ATPase regulatory subunit 14 (Homo sapiens, UniProt O00487); test: inhibition of proteasome subunit RPN11 – biochemical, fluorescence polarization, uHTS hits, confirmation (AID 602368); format: functional
26S proteasome non-ATPase regulatory subunit 14, sequence (O00487 whole entry): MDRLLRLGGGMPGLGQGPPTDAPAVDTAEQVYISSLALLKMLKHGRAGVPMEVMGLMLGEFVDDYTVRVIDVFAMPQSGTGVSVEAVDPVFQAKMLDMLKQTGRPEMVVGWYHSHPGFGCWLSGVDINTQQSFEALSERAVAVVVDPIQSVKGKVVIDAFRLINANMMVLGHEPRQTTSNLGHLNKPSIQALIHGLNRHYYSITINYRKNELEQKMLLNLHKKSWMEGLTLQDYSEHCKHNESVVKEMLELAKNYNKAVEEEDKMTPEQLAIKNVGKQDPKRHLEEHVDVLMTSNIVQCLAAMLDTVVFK

[10] = target: 72 kDa type IV collagenase (Homo sapiens, UniProt P08253); test: Dose Response validation of uHTS RPN11 inhibitor hits using a MMP-2 Fluorescence assay.; format: functional
72 kDa type IV collagenase, sequence (P08253 whole entry): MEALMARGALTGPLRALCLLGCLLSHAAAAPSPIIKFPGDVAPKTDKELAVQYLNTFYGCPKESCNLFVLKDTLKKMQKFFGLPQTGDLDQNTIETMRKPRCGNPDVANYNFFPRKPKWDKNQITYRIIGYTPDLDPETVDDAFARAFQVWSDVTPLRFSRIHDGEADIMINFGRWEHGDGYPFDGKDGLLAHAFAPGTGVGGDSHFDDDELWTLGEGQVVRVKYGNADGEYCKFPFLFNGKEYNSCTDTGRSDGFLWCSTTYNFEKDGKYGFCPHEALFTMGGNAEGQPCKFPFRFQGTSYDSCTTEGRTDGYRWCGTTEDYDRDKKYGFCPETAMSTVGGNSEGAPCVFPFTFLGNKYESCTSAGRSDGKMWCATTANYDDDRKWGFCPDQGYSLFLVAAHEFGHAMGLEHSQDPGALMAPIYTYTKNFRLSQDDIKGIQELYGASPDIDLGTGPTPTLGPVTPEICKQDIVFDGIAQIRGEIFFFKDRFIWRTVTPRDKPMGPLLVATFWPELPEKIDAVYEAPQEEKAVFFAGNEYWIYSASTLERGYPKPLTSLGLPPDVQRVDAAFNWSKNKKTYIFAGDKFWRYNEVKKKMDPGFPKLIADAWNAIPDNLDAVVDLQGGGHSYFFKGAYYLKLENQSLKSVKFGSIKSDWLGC

[11] = target: Prothrombin (Bos taurus, UniProt P00735); test: thrombin inhibition, dose response, biochemical, fluorescence polarization, uHTS hits (AID 602369); format: functional
[12] = target: Hepatocyte nuclear factor 4-alpha (Homo sapiens, UniProt P41235); format: functional, cell-based;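 further: biochemical luminescence-based dose-response counterscreen measuring inhibition of HNF4 dimerization, run alongside a screen for blockers of ABHD5–perilipin-5 interaction; split luciferase complementation of HNF4 fusion proteins in cell lysate measuring dimerization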
Hepatocyte nuclear factor 4-alpha, sequence (P41235 whole entry, the tested form may be a part): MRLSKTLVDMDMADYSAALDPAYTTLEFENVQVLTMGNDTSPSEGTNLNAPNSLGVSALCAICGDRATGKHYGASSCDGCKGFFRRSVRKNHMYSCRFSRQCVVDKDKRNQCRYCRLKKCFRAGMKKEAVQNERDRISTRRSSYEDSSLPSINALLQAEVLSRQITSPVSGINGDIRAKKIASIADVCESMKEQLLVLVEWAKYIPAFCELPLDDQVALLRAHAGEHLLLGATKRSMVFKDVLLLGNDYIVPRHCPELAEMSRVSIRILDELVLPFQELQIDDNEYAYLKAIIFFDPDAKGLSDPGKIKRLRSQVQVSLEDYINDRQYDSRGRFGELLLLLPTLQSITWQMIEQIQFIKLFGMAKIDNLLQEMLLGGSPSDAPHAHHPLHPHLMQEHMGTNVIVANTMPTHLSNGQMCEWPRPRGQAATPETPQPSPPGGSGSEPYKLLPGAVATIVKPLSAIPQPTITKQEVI

[13] = target: Adenosylmethionine-8-amino-7-oxononanoate aminotransferase (Mycobacterium tuberculosis, UniProt P9WQ81); test: Mycobacterium tuberculosis BioA enzyme inhibitor Measured in Biochemical System Using Plate Reader - 2163-02_Inhibitor_Dose_CherryPick_Activity.; format: functional, Mycobacterium tuberculosis UT205
Adenosylmethionine-8-amino-7-oxononanoate aminotransferase, sequence (P9WQ81 whole entry): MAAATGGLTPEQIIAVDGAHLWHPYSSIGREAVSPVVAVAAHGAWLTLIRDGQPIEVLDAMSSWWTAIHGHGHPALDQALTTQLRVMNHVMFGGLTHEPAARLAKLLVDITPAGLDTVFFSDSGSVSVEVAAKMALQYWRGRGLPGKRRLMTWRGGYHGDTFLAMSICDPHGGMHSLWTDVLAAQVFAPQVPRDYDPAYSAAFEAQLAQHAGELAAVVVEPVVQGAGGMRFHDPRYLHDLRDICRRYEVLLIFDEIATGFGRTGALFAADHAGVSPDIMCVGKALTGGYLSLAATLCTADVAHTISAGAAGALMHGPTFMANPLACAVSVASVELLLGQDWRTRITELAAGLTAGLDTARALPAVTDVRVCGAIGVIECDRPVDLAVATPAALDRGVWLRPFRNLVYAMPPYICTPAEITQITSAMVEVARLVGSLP

[14] = target: T5, DNA repair and recombination protein RAD54-like (Homo sapiens, UniProt Q92698); test: inhibitors of human RAD54 branch migration, confirmation, biochemical, fluorescence, cherry-picked samples, dose series (AID 651657); format: functional
T5 sequence (Q92698 whole entry): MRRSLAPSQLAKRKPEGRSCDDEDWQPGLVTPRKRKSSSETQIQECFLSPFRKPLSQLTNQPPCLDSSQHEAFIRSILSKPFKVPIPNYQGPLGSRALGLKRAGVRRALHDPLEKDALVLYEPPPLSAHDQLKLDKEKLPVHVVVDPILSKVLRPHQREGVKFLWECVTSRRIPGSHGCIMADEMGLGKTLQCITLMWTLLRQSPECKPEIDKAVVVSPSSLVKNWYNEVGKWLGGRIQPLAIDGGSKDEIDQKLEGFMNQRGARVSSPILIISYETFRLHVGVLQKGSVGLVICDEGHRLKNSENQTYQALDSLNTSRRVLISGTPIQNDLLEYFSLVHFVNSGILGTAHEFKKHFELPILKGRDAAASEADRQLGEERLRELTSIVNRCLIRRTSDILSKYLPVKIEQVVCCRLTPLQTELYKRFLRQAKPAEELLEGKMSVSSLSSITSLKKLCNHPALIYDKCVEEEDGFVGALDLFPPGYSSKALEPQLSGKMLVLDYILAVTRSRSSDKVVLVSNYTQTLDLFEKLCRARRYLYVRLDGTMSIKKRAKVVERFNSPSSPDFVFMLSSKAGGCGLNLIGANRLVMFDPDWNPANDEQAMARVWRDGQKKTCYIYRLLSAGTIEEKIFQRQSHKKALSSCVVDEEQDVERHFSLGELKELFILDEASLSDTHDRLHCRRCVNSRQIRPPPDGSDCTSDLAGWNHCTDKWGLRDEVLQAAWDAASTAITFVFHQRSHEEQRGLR

[15] = Counterscreen for inhibitors of Trypanosoma brucei methionyl tRNA synthetase (MetRS): Luminescence-based cell-based high throughput dose response assay to identify compounds that are cytotoxic to Jurkat human T lymphocyte cells.; format: functional
[16] = target: Protein disulfide-isomerase (Homo sapiens, UniProt P07237); test: PDI inhibitors, insulin aggregation turbidity, dose response, biochemical, absorbance, cherry-picked samples (AID 602350); format: functional
Protein disulfide-isomerase, sequence (P07237 whole entry): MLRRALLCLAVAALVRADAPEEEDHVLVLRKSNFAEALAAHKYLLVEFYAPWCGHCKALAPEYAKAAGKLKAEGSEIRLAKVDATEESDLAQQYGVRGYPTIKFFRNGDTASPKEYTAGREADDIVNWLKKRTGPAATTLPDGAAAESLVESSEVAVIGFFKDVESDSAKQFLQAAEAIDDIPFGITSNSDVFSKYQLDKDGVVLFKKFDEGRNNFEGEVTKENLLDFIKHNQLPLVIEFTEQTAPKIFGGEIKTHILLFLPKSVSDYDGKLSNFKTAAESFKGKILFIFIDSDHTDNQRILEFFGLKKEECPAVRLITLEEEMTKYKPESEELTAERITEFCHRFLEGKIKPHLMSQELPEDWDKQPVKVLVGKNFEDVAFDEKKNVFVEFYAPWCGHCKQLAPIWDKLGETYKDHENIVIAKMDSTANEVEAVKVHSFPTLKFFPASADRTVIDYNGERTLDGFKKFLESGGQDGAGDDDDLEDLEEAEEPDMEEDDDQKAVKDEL

Structure (SMILES): CC1=C/C(=C\c2ccc(Br)o2)C(=O)O1
- IC50 [1]: 4.99 µM (active)
- AC50 [2]: 4.71 µM (active)

Structure (SMILES): CCCOc1ccc(C(=O)N/N=C/c2ccc(-c3ccc(S(=O)(=O)Nc4ncccn4)cc3)o2)cc1
- IC50 [3]: 26.1 µM (active)
- IC50 [4]: > 100 µM (active)
- IC50 [5]: 6.45 µM (active)
- IC50 [6]: 31 µM (active)

Structure (SMILES): O=C(OCCCOc1ccc(F)cc1)c1ccc(O)cc1O
- IC50 [7]: 3.59 µM (active)
- IC50 [8]: 4.47 µM (active)

Structure (SMILES): O=C(Nc1nc(-c2ccc(F)c(F)c2)cs1)Nc1ccc(F)cc1F
- IC50 [9]: 30.3 µM (active)
- IC50 [10]: > 100 µM (inactive)
- IC50 [11]: 78.3 µM (active)

Structure (SMILES): C=C1C(=O)O[C@H]2C[C@H]1[C@@H](OC(C)=O)C/C(C)=C/CC/C(C)=C\CC[C@]2(C)O
- IC50 [12]: 3.21 µM (active)

Structure (SMILES): CN1CCN(c2[nH]cnc3c4cc(F)ccc4nc2-3)CC1
- AC50 [13]: 2.8 µM (active)
- AC50 [14]: 28.8 µM (active)

Structure (SMILES): N=C1CCCN1CC(=O)c1ccc(Cl)cc1
- IC50 [7]: 6.01 µM (active)
- IC50 [8]: 2.7 µM (active)

Structure (SMILES): Cc1cccc(NS(=O)(=O)c2ccc3[nH]c(-c4ccccc4)nc3c2)c1C
- IC50 [15]: 25.1 µM (inactive)

Structure (SMILES): CC(=O)OC[C@H]1O[C@@H](Oc2cc(O)cc3oc(-c4ccc(O)cc4)cc(=O)c23)[C@H](O[C@@H]2O[C@@H](C)[C@H](O)[C@@H](O)[C@H]2O)[C@@H](O)[C@@H]1O
- AC50 [16]: 19.5 µM (active)

Structure (SMILES): Cc1cccc(C)c1NC(=O)C(c1ccc(C#N)cc1)n1c(=O)c(-c2ccco2)nc2ccccc21 (stereo not given)
- IC50 [12]: 1.86 µM (active)

Structure (SMILES): COc1ccc(C2=NN(c3ccc(C(=O)O)cc3)C(c3ccc(OC)c(OC)c3)C2)cc1 (stereo not given)
- IC50 [7]: 4.79 µM (active)
- IC50 [8]: 3.55 µM (active)

Structure (SMILES): COc1cccc(/C=C(/CC(=O)Nc2ccc(N3CCOCC3)cc2)c2nc3ccccc3s2)c1
- IC50 [9]: 12.6 µM (active)
- IC50 [10]: > 100 µM (inactive)
- IC50 [11]: 25 µM (active)

Structure (SMILES): Cc1cc(C(=O)NC2CC(C)(C)Cc3c2cnn3-c2cccc(F)c2)nn1C (stereo not given)
- AC50 [13]: 2.72 µM (active)
